# Laboratory results from US10532066B2, “Surfactant lipids, compositions thereof, and uses thereof” (National Jewish Health, priority 2007, dated 2020).
# Columns and labels:
# Type in all cases: cell-based
# RAW264.7 cells = assay: BODIPY-LPS association with RAW264.7 macrophages (FACScan); conditions: BODIPY-LPS 1 μg/ml, liposomes 200 μg/ml, 4 h
# Method: FIG. 11. Anionic phospholipids block BODIPY-LPS association with RAW264.7 macrophages. Liposomes were prepared by bath-sonication at room temperature for 30 min. RAW264.7 cells (10^6/tube) were incubated either without or with 1 μg/ml BODIPY-LPS in the presence or absence of liposomes (200 μg/ml) at 4° C. for 4 h. Subsequently the cells were washed by centrifugation and the cell associated fluorescence was quantified by FACScan. […] In panel B the mean fluorescence intensity (MFI) ratio of cells plus LPS/cells without LPS is plotted against different phospholipid treatments. Values shown in B are means±SE for three independent experiments with duplicate determinations in each experiment. Significance—* p<0.05, ** p<0.01
# RAW264.7 cells (10^6) were incubated with BODIPY-LPS (1 μg/ml) either with or without phospholipid liposomes (200 μg/ml) at 4° C. for 4 h. When liposomes were added, […] preceded the addition of fluorescent LPS. After the cells were washed with PBS by centrifugation, cell adherent fluorescence was determined using FACScan. Macrophages were counted for 20,000 cells and the graph was made by CellQuest software.
# TLR6 = biological target: T1, TLR6 (Homo sapiens, UniProt Q9Y2C9); assay: TLR agonist IL-8 production in BEAS2B epithelial cells, TLR6; conditions: MALP2, 48 h
# T1 construct: endogenous in cells; host or cells: BEAS2B
# T1 sequence (Q9Y2C9 32-796): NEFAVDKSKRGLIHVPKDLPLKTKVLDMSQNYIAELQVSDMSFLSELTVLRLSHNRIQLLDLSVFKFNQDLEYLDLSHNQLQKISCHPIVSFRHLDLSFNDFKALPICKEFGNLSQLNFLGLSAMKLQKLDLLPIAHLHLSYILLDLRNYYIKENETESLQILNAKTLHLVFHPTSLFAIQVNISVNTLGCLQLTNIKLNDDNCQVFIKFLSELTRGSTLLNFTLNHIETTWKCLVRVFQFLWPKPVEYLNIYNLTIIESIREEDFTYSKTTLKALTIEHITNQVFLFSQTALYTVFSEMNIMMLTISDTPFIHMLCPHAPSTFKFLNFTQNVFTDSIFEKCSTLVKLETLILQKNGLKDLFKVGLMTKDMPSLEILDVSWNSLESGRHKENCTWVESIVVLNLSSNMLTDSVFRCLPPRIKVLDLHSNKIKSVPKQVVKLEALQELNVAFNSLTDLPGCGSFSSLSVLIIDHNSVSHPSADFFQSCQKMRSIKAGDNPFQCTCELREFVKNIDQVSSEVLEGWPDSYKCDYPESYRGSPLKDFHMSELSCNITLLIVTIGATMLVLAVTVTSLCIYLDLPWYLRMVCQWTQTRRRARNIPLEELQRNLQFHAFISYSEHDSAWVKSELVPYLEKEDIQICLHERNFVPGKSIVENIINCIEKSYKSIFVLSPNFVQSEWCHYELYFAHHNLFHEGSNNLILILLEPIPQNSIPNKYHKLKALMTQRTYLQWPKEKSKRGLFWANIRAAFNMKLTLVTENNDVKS
# Method: (§1) In this experiment, multiple TLRs were stimulated with defined TLR agonists for 48 h, and the IL-8 production was measured. In each case, the maximal stimulation by agonist is set at 100% and the antagonism by POPG or PI is expressed as the relative % response. The Controls consist of no treatment, or treatment with POPG, or phosphatidylcholine (POPC), or phosphatidylinositol (PI), in the absence of agonist as indicated. The agonists for the TLRs consist of Pam3Cys for TLR1/2, Mycoplasma pneumoniae membranes as an agonist for TLR2, Mycoplasma fermentans derived MALP2 as an agonist for TLR 2/6, double stranded RNA (poly IC) for TLR3, and bacterial flagellin (Fla) as an agonist for TLR5.
# (§2) Monolayers of BEAS2B cells were challenged with the TLR1/2 agonist, Pam3Cys (25 ug/ml); the TLR 2/6 agonist MALP2 (10 ng/ml); the TLR2 agonist mycoplasma membrane (Mem) (1 ug/ml); the TLR3 agonist, poly I:C (0.1 ug/ml); and the TLR5 agonist, flagellin (100 ng/ml). For each agonist parallel incubations were performed containing 200 ug/ml POPG as liposomes, or 200 ug/ml POPG as nanodises as indicated.
# TLR5 = biological target: T2, TLR5 (Homo sapiens, UniProt O60602); assay: TLR agonist IL-8 production in BEAS2B epithelial cells, TLR5; conditions: flagellin, 48 h
# T2 construct: endogenous in cells; host or cells: BEAS2B
# T2 sequence (O60602 21-858): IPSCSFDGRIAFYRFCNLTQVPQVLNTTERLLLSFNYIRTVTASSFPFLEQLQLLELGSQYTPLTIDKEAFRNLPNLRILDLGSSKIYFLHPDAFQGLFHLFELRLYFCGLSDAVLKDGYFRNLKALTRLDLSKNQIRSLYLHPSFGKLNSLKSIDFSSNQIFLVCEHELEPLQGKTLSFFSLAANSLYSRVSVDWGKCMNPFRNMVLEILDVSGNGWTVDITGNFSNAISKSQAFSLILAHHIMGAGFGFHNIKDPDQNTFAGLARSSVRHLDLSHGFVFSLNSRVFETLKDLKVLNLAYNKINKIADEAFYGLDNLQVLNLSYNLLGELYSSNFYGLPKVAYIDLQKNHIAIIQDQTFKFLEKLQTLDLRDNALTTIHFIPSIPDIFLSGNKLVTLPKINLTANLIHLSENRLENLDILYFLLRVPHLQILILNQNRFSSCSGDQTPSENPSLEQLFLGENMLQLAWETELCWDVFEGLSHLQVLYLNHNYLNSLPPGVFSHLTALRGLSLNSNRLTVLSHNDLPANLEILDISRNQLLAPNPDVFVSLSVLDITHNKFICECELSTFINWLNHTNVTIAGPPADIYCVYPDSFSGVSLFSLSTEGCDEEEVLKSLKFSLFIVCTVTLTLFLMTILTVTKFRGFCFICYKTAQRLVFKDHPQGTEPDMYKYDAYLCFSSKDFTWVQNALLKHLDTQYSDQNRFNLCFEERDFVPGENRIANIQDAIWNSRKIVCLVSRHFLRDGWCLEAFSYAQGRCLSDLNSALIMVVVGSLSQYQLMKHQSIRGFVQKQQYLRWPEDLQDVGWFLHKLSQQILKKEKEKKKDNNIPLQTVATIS
# Method: as §1, §2
# TLR1 = biological target: T3, TLR1 (Homo sapiens, UniProt Q15399); assay: TLR agonist IL-8 production in BEAS2B epithelial cells, TLR1; set-up: endogenous in cells; host or cells: BEAS2B; conditions: Pam3Cys, 48 h
# T3 sequence (Q15399 25-786): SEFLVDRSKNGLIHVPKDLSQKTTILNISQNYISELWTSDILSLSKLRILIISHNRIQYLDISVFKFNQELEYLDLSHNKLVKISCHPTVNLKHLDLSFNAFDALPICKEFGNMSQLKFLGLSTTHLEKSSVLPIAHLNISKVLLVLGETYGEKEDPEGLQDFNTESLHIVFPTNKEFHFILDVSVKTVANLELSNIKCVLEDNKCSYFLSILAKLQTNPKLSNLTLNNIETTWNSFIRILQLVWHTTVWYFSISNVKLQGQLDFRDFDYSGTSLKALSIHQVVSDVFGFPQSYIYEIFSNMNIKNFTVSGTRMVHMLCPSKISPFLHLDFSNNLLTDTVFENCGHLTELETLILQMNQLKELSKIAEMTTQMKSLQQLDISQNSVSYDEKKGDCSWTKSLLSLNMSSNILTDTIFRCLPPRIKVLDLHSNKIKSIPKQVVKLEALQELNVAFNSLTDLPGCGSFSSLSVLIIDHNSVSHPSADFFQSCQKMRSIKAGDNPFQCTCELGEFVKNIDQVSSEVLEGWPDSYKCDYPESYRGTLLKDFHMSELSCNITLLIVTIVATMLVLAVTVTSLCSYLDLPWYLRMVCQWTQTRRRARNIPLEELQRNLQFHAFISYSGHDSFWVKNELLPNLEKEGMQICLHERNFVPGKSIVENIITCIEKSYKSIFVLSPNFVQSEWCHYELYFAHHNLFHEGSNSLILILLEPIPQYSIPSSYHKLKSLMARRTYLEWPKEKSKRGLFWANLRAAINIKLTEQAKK
# Method: as §1, §2
# TLR3 = biological target: T4, TLR3 (Homo sapiens, UniProt O15455); assay: TLR agonist IL-8 production in BEAS2B epithelial cells, TLR3; set-up: endogenous in cells; host or cells: BEAS2B; conditions: poly IC, 48 h
# T4 sequence (O15455 24-904): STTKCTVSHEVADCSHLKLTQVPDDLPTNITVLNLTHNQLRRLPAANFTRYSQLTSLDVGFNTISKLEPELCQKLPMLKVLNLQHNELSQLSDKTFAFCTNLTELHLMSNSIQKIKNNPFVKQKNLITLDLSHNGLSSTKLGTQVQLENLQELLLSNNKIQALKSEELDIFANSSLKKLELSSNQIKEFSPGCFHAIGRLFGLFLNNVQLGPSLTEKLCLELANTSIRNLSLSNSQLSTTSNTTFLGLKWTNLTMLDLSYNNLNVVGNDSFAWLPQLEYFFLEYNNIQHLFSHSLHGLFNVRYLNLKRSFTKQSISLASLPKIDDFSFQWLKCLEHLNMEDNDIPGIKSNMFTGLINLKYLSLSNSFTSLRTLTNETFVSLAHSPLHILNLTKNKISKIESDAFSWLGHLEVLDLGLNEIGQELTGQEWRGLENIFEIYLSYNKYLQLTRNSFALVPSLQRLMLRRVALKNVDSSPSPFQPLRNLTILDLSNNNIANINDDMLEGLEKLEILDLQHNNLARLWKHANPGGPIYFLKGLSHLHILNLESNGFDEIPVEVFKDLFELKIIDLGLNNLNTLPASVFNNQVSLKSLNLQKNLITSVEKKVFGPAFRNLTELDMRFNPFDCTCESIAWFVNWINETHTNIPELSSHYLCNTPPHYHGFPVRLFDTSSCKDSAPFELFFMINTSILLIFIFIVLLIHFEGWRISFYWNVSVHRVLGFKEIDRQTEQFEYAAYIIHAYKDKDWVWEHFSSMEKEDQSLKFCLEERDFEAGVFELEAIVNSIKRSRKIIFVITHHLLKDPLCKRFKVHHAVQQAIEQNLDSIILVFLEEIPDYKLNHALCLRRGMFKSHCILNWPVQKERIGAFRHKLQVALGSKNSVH
# Method: as §1, §2
# influenza-A virus H3N2 = assay: Influenza-A cytopathic effects and cell death in BEAS2B cells; conditions: 72 h, 200 ug/ml POPG
compound,measurement,setting,value
phosphatidylinositol [PI],binding of BODIPY-LPS to the surface of macrophages,RAW264.7 cells,blocks the binding
same,activity of TLR6 (IL-8 production),TLR6,inhibit
same,activity of TLR5 (IL-8 production),TLR5,not
same,activity of TLR1 (IL-8 production),TLR1,inhibit
same,activity of TLR3 (IL-8 production),TLR3,inhibit
"CCCCCCCC/C=C\CCCCCCCC(=O)O[C@H](COC(=O)CCCCCCCCCCCCCCC)COP(=O)(O)OCC(O)CO (some centres unmarked) [POPG, palmitoyl-oleoyl-phosphatidylglycerol]",binding of BODIPY-LPS to the surface of macrophages,RAW264.7 cells,blocks the binding
same,activity of TLR6 (IL-8 production),TLR6,inhibit
same,activity of TLR5 (IL-8 production),TLR5,not
same,cell death induced by influenza A infection,influenza-A virus H3N2,prevents cell death
same,activity of TLR1 (IL-8 production),TLR1,inhibit
same,activity of TLR3 (IL-8 production),TLR3,inhibit
